Experimental data published in patent US5001155A, “β-ionone derivative as antifungal agent” (University of Kentucky Research Foundation, priority 1989, dated 1991).
Converted amounts (≈) assume the structure as drawn.

Tests used:
[1] = system: Peronospora tabacina sporangia; experiment: Inhibition of Sporangial Germination, Variant II (test 3.12); assay type: cell-based; details: 1% water agar, 10^6 s/ml, 18° C., 16 hours, read-out: ED50 (the source's name)
Experimental: 3.12. Variant II In another in vitro test, the substances (10^2 -10^-8 ppm) were added to 1% water agar and poured into petri dishes. After cooling, the media were inoculated with 100 μl of a suspension of sporangia (10^6 s/ml) and incubated at 18° C. during 16 hours. The germinated sporangia were counted under the microscope.

P. tabacina conidia = details: Phytochemistry 1972, vol. 11, pp. 2055-2063; cited from earlier work

IC50 [1] | SMILES | inhibition of germination (P. tabacina conidia)
0.05 ng/mL (≈ 0.163 nM) | CCCCCC(=O)O[C@@H]1CC(C)=C(/C=C/C(C)=O)C(C)(C)C1 [3(R)-n-hexanoyloxy-β-ionone] | 
2e-05 ng/mL (≈ 7.18e-05 nM) | CCCC(=O)O[C@@H]1CC(C)=C(/C=C/C(C)=O)C(C)(C)C1 [3(R)-n-butyroyloxy-β-ionone, 3(R)-butyroyloxy-β-ionone] | 
0.001 ng/mL (≈ 0.00342 nM) | CC(=O)/C=C/C1=C(C)C[C@@H](OC(=O)C(C)(C)C)CC1(C)C [3(R)-pivaloyloxy-β-ionone] | 
0.4 ng/mL (≈ 1.44 nM) | CC(=O)/C=C/C1=C(C)CC(OC(=O)C(C)C)CC1(C)C (stereo not drawn) [Quieson, 3-isobutyroyloxy-β-ionone, reference compound] | an inhibitor of the germination of P. tabacina conidia

SMILES | IC50 [1] | inhibition of germination (P. tabacina conidia)
COCC(=O)O[C@@H]1CC(C)=C(/C=C/C(C)=O)C(C)(C)C1 [3(R)-methoxyacetoxy-β-ionone] | 8e-05 ng/mL (≈ 0.000285 nM) | 
CCOCC(=O)O[C@@H]1CC(C)=C(/C=C/C(C)=O)C(C)(C)C1 [3(R)-ethoxyacetoxy-β-ionone] | 0.006 ng/mL (≈ 0.0204 nM) | 
